Blank lines part the entries; values can stand above or below the compound they belong to.
Experiments:
[1] = tested on: serine protease NS3 (a.a. 3-181) from Hepatitis C virus genotype 1a (mutant D168V); details: Reference, 100 nM
[2] = tested on: serine protease NS3 (a.a. 3-181) from Hepatitis C virus genotype 1b; details: Reference, 100 nM
[3] = target: serine protease NS3 (a.a. 3-181) from Hepatitis C virus genotype 2a (Hepatitis C virus genotype 2a, UniProt Q99IB8); details: 100 nM
DPP7 = DPP7 (Homo sapiens, UniProt Q9UHL4); details: 200 μM
DPP8 = DPP8 (Homo sapiens, UniProt Q6V1X1); details: 200 μM
Sequence of DPP8 (Q6V1X1 whole entry, species assumed): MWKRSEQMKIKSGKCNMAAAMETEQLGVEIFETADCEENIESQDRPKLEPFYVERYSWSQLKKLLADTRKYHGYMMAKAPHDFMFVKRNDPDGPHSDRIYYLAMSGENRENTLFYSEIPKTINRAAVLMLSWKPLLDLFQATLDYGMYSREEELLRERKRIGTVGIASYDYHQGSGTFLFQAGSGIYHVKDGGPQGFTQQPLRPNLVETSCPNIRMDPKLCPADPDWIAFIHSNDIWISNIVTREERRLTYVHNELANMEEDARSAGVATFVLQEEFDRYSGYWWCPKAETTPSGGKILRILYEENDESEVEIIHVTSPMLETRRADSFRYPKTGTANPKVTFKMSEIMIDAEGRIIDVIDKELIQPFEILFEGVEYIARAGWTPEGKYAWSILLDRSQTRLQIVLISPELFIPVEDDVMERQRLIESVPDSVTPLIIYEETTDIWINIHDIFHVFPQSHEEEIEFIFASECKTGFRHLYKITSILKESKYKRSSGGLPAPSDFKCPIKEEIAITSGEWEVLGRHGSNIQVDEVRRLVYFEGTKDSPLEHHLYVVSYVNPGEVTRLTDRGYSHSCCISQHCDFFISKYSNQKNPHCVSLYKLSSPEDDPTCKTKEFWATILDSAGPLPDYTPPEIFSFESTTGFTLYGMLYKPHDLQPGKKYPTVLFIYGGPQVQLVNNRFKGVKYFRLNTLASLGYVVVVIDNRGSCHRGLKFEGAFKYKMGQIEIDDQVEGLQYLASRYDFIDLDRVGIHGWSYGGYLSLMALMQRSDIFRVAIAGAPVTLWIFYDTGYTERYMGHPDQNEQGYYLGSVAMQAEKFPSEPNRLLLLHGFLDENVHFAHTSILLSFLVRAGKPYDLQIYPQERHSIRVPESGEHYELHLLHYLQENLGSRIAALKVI

FAP = FAP (Homo sapiens, UniProt Q12884); details: 100 nM
Sequence of FAP (Q12884 whole entry): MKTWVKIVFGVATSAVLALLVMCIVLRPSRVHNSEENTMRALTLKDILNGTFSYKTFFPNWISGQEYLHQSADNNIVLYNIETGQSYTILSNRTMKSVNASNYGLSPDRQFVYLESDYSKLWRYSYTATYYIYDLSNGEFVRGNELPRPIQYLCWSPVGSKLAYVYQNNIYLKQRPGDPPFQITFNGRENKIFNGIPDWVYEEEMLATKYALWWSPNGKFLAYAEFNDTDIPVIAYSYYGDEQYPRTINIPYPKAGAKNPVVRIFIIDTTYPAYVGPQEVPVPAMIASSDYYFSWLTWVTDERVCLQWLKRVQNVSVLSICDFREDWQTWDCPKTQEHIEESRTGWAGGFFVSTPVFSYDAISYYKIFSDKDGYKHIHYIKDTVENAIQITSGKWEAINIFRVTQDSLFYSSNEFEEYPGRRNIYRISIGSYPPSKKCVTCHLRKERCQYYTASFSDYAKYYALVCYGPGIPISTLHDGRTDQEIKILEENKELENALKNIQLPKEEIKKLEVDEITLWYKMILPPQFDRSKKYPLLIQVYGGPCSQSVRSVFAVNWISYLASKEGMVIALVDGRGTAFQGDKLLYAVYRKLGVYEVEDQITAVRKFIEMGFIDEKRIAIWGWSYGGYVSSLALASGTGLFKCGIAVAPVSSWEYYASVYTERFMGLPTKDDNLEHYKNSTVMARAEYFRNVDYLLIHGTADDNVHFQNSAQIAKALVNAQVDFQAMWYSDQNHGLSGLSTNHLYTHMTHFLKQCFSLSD

Ataxin3 = Ataxin3 (Homo sapiens, UniProt P54252); details: 10 μM
Sequence of Ataxin3 (P54252 whole entry, species assumed): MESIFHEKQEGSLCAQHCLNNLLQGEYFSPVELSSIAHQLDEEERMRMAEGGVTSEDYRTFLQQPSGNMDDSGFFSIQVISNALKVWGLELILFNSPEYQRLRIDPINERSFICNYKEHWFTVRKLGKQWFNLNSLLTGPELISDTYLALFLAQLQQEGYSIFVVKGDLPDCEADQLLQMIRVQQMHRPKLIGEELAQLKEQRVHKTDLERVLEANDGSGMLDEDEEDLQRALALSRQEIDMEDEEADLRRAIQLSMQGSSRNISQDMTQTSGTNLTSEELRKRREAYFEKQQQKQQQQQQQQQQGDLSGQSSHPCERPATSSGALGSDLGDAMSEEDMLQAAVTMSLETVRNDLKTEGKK

Deubiquitinase OTUD6B = target: T1, Deubiquitinase OTUD6B (Homo sapiens, UniProt Q8N6M0); details: 1 μM
T1 sequence (Q8N6M0 1-293): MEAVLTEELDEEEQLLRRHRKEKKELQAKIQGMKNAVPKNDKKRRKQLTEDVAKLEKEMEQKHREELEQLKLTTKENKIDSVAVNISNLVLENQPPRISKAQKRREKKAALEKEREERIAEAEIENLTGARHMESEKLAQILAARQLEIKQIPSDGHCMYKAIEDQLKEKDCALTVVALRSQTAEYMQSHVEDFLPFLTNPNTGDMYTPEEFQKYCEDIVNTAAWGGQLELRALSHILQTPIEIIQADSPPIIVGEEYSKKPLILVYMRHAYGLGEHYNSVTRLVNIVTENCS

[4] = target: T2, Ubiquitin carboxy-terminal hydrolase L1 (Homo sapiens, UniProt P09936); details: 100 nM
T2 sequence (P09936 1-223): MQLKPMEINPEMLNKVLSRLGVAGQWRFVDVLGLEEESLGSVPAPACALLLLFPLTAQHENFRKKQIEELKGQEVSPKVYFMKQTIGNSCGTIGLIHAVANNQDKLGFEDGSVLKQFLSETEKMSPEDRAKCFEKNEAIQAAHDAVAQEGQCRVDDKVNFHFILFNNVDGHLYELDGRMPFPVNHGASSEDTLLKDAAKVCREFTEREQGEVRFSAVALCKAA

[5] = target: T3, Ubiquitin carboxy-terminal hydrolase L3 (Homo sapiens, UniProt P15374); details: 10 nM
T3 sequence (P15374 1-230): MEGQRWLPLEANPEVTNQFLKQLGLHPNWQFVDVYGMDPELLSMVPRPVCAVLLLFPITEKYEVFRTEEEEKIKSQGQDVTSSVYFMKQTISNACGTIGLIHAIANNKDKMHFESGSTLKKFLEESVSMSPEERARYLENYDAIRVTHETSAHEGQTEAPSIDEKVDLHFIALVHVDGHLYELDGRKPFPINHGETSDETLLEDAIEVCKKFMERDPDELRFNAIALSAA

[6] = target: T4, Ubiquitin carboxyl-terminal hydrolase 2 (Homo sapiens, UniProt O75604); details: 1 μM
T4 sequence (O75604 1-605): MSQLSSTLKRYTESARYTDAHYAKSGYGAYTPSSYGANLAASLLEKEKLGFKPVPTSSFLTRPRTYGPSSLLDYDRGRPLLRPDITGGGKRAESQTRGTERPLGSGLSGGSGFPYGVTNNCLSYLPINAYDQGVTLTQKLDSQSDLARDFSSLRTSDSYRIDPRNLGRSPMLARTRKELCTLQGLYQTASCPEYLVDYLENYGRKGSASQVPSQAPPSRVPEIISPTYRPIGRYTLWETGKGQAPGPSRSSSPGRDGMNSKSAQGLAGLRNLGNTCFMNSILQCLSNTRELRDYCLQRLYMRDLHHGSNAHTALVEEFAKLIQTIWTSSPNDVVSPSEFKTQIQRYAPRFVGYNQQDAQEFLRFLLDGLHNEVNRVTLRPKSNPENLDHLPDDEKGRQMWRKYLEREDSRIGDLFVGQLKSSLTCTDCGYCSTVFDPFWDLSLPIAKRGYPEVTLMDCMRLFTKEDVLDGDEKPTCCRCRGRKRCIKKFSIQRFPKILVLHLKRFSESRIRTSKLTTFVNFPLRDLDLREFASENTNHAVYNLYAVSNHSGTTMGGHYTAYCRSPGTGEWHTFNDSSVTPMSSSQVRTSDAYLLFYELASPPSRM

[7] = target: T5, Ubiquitin carboxyl-terminal hydrolase 5 (Homo sapiens, UniProt P45974); details: 1 μM
T5 sequence (P45974 1-858): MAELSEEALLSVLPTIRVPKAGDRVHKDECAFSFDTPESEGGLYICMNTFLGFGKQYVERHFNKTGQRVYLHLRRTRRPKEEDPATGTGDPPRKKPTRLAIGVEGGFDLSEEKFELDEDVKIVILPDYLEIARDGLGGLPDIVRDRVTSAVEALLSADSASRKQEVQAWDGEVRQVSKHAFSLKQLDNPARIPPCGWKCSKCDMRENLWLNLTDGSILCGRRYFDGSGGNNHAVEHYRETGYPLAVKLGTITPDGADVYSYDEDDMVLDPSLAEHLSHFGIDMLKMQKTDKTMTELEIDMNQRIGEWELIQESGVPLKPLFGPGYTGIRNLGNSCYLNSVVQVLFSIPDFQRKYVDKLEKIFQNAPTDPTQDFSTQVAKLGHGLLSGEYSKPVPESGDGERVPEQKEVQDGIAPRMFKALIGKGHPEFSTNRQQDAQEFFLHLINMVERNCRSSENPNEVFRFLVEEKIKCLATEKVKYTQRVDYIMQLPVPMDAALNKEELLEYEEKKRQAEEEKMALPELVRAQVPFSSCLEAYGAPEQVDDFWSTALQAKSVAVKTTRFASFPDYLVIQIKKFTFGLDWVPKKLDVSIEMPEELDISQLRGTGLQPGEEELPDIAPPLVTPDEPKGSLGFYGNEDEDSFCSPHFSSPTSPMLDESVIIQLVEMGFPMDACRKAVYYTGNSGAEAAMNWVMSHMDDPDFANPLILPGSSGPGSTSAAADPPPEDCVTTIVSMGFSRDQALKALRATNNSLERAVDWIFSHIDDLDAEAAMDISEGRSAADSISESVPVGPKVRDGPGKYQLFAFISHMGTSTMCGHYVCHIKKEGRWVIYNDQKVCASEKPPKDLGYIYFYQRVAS

[8] = target: Ubiquitin carboxyl-terminal hydrolase 7 (Homo sapiens, UniProt Q93009); details: 1 μM
Sequence of Ubiquitin carboxyl-terminal hydrolase 7 (Q93009 whole entry): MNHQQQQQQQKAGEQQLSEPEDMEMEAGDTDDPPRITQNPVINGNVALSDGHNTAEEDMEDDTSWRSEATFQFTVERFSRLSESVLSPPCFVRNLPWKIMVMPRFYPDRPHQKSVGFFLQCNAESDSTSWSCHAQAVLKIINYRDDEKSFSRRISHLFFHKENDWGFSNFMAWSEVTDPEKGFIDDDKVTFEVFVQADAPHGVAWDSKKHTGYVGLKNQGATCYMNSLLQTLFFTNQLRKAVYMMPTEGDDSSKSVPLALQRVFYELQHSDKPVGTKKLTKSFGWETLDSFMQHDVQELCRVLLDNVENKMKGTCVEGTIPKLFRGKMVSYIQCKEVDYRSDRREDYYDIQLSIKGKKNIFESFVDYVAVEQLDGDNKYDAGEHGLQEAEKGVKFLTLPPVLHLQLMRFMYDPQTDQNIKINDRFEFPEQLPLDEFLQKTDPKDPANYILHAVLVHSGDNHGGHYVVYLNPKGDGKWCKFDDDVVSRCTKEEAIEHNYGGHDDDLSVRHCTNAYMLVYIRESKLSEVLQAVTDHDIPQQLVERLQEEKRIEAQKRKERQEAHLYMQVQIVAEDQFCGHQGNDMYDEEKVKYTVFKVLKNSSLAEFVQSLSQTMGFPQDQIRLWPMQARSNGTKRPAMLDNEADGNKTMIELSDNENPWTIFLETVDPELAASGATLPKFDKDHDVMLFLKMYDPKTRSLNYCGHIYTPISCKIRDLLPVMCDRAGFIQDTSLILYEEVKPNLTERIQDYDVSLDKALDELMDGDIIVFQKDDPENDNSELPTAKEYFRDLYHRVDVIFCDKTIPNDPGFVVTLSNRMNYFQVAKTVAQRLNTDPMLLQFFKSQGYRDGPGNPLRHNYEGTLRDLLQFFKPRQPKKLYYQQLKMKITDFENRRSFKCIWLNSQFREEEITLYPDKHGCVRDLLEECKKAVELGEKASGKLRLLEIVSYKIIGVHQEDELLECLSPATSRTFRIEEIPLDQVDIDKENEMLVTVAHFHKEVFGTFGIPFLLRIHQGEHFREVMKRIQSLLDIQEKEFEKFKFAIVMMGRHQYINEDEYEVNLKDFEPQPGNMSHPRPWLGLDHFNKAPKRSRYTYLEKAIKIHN

[9] = target: T6, Ubiquitin carboxyl-terminal hydrolase 8 (Homo sapiens, UniProt P40818); details: 1 μM
T6 sequence (P40818 1-1118): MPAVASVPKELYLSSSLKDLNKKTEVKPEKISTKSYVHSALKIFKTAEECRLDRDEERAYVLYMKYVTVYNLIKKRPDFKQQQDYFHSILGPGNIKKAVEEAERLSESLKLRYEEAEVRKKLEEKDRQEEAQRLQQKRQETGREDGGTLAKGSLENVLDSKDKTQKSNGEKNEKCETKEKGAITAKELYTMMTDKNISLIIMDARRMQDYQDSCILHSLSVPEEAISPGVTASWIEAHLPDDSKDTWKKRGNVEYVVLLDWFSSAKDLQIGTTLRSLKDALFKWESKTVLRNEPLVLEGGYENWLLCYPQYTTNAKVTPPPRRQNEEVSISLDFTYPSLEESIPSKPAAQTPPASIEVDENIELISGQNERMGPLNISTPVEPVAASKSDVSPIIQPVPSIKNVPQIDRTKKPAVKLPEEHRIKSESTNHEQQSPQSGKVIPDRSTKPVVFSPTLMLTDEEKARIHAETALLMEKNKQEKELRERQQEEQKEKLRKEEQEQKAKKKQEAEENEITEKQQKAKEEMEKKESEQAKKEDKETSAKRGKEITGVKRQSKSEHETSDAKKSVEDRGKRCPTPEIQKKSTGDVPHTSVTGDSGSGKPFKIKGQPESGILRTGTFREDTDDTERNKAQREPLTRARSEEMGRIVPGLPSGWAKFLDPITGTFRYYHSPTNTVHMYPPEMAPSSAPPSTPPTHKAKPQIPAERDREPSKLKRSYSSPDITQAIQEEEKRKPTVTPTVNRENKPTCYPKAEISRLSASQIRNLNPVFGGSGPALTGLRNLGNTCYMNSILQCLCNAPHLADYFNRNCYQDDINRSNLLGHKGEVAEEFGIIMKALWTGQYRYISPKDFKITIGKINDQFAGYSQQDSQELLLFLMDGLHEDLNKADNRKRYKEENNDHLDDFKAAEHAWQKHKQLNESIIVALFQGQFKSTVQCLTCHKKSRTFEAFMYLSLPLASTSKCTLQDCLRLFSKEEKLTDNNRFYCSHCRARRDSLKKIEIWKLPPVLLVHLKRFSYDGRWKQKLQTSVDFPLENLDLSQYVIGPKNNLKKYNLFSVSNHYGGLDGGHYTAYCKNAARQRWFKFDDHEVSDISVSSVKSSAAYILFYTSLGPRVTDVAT

[10] = target: Ubiquitin carboxyl-terminal hydrolase 10 (Homo sapiens, UniProt Q14694); details: 1 μM
Sequence of Ubiquitin carboxyl-terminal hydrolase 10 (Q14694 whole entry): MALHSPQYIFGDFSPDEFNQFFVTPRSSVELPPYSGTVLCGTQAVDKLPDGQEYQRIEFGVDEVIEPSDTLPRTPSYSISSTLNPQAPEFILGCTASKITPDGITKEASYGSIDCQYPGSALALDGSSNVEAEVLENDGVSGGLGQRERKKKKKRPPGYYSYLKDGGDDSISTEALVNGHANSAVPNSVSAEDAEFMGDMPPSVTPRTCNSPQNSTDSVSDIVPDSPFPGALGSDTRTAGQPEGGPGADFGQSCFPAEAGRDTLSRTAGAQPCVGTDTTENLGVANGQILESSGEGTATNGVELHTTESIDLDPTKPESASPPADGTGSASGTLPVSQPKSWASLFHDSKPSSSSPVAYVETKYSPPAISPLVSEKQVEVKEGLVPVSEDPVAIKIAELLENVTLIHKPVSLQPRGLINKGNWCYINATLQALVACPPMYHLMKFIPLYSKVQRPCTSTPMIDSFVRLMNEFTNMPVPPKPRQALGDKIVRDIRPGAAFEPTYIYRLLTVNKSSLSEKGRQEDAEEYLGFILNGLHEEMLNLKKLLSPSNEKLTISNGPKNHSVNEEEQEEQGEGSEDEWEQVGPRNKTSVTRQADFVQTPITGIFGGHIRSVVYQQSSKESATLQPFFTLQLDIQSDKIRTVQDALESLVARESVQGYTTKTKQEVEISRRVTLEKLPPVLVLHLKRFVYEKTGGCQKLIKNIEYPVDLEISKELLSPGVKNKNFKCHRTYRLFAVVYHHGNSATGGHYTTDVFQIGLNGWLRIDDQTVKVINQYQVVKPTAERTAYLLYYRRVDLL

[11] = target: Ubiquitin carboxyl-terminal hydrolase 14 (Homo sapiens, UniProt P54578); details: 100 nM
Sequence of Ubiquitin carboxyl-terminal hydrolase 14 (P54578 whole entry): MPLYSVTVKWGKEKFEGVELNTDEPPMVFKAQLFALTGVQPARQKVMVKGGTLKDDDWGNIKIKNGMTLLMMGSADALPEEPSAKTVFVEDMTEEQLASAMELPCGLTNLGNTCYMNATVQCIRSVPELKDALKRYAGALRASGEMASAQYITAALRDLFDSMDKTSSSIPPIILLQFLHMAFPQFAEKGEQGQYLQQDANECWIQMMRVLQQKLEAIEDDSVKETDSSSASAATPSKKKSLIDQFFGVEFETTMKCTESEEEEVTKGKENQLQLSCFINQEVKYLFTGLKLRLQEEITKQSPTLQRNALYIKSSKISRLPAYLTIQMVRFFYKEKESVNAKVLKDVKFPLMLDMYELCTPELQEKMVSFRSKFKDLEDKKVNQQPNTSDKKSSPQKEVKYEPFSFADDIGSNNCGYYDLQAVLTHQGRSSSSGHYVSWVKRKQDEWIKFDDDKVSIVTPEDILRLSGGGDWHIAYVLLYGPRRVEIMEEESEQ

Sequence of serine protease NS3 (a.a. 3-181) from Hepatitis C virus genotype 2a (Q99IB8 1033-1211 limits assumed, other chains not shown): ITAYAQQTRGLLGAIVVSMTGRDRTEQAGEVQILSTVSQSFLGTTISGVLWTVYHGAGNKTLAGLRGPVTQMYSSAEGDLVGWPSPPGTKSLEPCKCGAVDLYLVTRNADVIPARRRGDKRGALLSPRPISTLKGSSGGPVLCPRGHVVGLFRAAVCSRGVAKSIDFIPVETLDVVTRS

Compound: CC(C)(C)OC(=O)N[C@H]1CCCCC/C=C\[C@@H]2C[C@@]2(C(=O)NS(=O)(=O)C2CC2)NC(=O)[C@@H]2C[C@@H](OC(=O)N3Cc4cccc(F)c4C3)CN2C1=O [Denoprevir, reference compound]
Percentage inhibition (%), Reference [1]: 94%
Percentage inhibition (%), Reference [2]: 100%
Percentage inhibition (%), Reference [3]: 98%

Compound: N#Cc1ccc(NCCNCC(=O)N2N=CCC2C#N)nc1 (stereo not shown) [KR62436]
Percentage inhibition (%), Reference (DPP7): 83%
Percentage inhibition (%), Reference (DPP8): 96%

Compound: N#C[C@@H]1CC(F)(F)CN1C(=O)CNC(=O)c1ccnc2ccccc12 [SP-13786]
Percentage inhibition (%), Reference (FAP): 100%

Percentage inhibition (%), Reference (Deubiquitinase OTUD6B): 97%
Percentage inhibition (%), Reference [4]: 92%
Percentage inhibition (%), Reference [5]: 95%
Percentage inhibition (%), Reference [6]: 91%
Percentage inhibition (%), Reference [7]: 84%
Percentage inhibition (%), Reference [8]: 95%
Percentage inhibition (%), Reference [9]: 73%
Percentage inhibition (%), Reference [10]: 82%
Percentage inhibition (%), Reference [11]: 96%
Compound: Ub-Aldehyde
Percentage inhibition (%), Reference (Ataxin3): 77%
